Where “and” joins values, the source holds several entries; their conditions need not be identical. Equal values may be shown once.
Columns and labels:
A549 = assay: MTT assay, antiproliferative activity; format: cell-based; conditions: Homo sapiens, 48h, read-out: Mean Growth Percentage
Method: (§1) Pyrazole acylhydrazones 10–13 and amides 14–22 were tested by MTT assay to evaluate their antiproliferative and cytotoxicity properties against a panel of eight tumor cell lines and normal fibroblasts.
(§2) All reagents were purchased from EuroClone, Milan, Italy). The following cell lines were used for MTT assays: SKOV-3 (ovarian adenocarcinoma, ATCC, Manassas, VA, USA); MCF-7 (breast adenocarcinoma, Biologic Bank and Cell Factory, IRCCS Policlinico San Martino, Genoa, Italy); Hep-G2 (hepatocellular carcinoma, ATCC, Manassas, VA, USA); SK-MEL28 (skin melanoma, Biologic Bank and Cell Factory, IRCCS Policlinico San Martino, Genoa, Italy), GM-6114 (embryonic human fibroblast, ATCC, Manassas, VA, USA); MDA-MB231 (breast adenocarcinoma, Biologic Bank and Cell Factory, IRCCS Policlinico San Martino, Genoa, Italy); HeLa (cervical adenocarcinoma, Biologic Bank and Cell Factory, IRCCS Policlinico San Martino, Genoa, Italy); SK-BR3 (breast andenocarcinoma, Biologic Bank and Cell Factory, IRCCS Policlinico San Martino, Genoa, Italy); A549 (lung carcinoma, Biologic Bank and Cell Factory, IRCCS Policlinico San Martino, Genoa, Italy); HUVEC (Human Umbilical Vein Endothelial Cells, ATCC, Manassas, VA, USA). All cell lines were grown in their medium with 10% FBS, 2 mM Glutamine, and 1% penstrep and incubated at 37 °C in 5% CO2 in a humidified environment. The cell lines were plated in 96-well plates at an adequate number to reach 80–90% confluence at the end of the assay. 16 h after cell plating, a 10 mM DMSO stock solution of the compounds was diluted in growth medium and added at a final working concentration of 10 μM. After 48h of incubation, a 2 mg/mL PBS solution of MTT (3-(4,5-dimethyl-2-thiazolyl)-2,5-diphenyl-2H-tetrazolium bromide) was added (30 μL/well). After 4h, the supernatant was removed, and the Formazan precipitates were dissolved in DMSO (100 μL/well). The 96-well plates were incubated for 20 min, and absorbance was measured at 570 nm using a plate reader. The results are expressed as a percentage ratio over control samples (100%) in which the cells were incubated with the same amount of DMSO but without compounds. Each value is the mean of three independent experiments run in six replicates.

Hep-G2 = assay: MTT assay, antiproliferative activity; format: cell-based; conditions: Homo sapiens, HepG2, 48h
Method: as §1, §2

MDA-MB231 = assay: MTT assay, antiproliferative activity; format: cell-based; conditions: Homo sapiens, MDA-MB-231, 48h
Method: as §1, §2

SK-BR3 = assay: MTT assay, antiproliferative activity; format: cell-based; conditions: Homo sapiens, SK-BR-3, 48h
Method: as §1, §2

HeLa = assay: MTT assay, antiproliferative activity; format: cell-based; conditions: Homo sapiens, 10 µM, 48h, read-out: Mean Growth Percentage
Method: as §1, §2
(§3) Each IC50 value is the mean of three independent experiments run in duplicate.

MCF7 = assay: MTT assay, antiproliferative activity; format: cell-based; conditions: Homo sapiens, 10 µM, 48h
Method: as §1, §2, §3

SKMEL28 = assay: MTT assay, antiproliferative activity; format: cell-based; conditions: Homo sapiens, SK-MEL-28, 10 µM, 48h
Method: as §1, §2, §3

SKOV3 = assay: MTT assay, antiproliferative activity; format: cell-based; conditions: Homo sapiens, SK-OV-3, 10 µM, 48h
Method: as §1, §2, §3

GM-6114 = assay: MTT assay, cytotoxicity on normal fibroblasts; format: cell-based; conditions: human, 48 h, 10 µM
washed platelets [1] = assay: Platelet aggregation (thrombin-induced, Born's method); format: cell-based; conditions: Homo sapiens, 0.1 U/mL thrombin, mean ± SD, read-out: IC50 Aggregation inhibition
Method: (§4) The antioxidant properties of acylhydrazones 10–13 and pyrazolyl amides 14–22 were tested by evaluating their inhibition of platelet aggregation and ROS production (Figure 3, Table S1). In fact, human platelets could represent a fast and low-cost biological model to screen compounds as anticancer, anti-inflammatory, and antiaggregating agents. Moreover, ROS production inhibition, related to human platelet aggregation, could provide a good indication of the anti-inflammatory and antioxidant properties of the newly synthesized compounds [47, 50, 51, 52]. N-acetylcysteine (NAC) and acetyl salicylic acid (ASA) were used as reference drugs for antioxidant and antiaggregant activities, respectively.
(§5) Freshly drawn venous blood from healthy volunteers from “Centro Trasfusionale” (IRCCS Policlinico San Martino, Genoa, Italy) was collected into a 130 mM aqueous trisodium citrate anticoagulant solution (9:1). The donors claimed to not have taken drugs known to interfere with platelet function during the two weeks prior to blood collection and gave their informed consent. Whole blood was centrifuged at 100× g for 20 min to afford platelet-rich plasma that was then spun at 1100× g for 15 min. The obtained pellet was washed once with a pH 5.2 ACD solution (75 mM trisodium citrate, 42 mM citric acid, and 136 mM glucose), centrifuged at 1100× g for 15 min, and then re-suspended in pH 7.4 Hepes buffer (145 mM NaCl, 5 mM KCl, 1 mM MgSO4, 10 mM glucose, and 10 mM HEPES).
Thrombin was purchased from Sigma-Aldrich/Merck Millipore. A DMSO solution of compounds 10–22 was diluted in saline immediately before each experiment and added to the washed platelets (3.0 × 10^8/mL) at 37 °C. After 3 min, 0.1 U/mL thrombin was added, and platelet aggregation was quantified according to Born’s method using a Bio-Data Aggregometer (Bio-Data Corporation, Horsham, PA, USA). The IC50 values were calculated as detailed above.

washed platelets [2] = assay: ROS assay in platelets (DCFH-DA, thrombin-stimulated); format: cell-based, human; conditions: Homo sapiens, Platelet, 0.1 U/mL thrombin, mean ± SD, read-out: IC50 ROS production inhibition
Method: as §4, §5
2′,7′-Dichlorofluorescein diacetate (DCFH-DA) and thrombin were purchased from Sigma-Aldrich/Merck Millipore. DMSO solutions of 10–22 were diluted in saline immediately before each experiment. ROS production was quantified by DCFH-DA, a ROS-sensitive probe that yields, upon oxidation, the fluorescent adduct DCF that is trapped inside the cells. Briefly, washed platelets (1.0 × 10^8/mL), pre-incubated with saline solutions of 10–22 for 15 min at 37 °C, were stimulated by 0.1 U/mL thrombin. Incubation was stopped by cooling samples in an ice bath, and then samples were immediately analyzed in a Merck Millipore Bioscience Guava easyCyte flow cytometer (Merk Millipore, Burlington, MA, USA). The reported IC50 values represent the molar concentration of the compounds able to inhibit 50% of the maximal aggregation induced by the agonist and are calculated as the percentage inhibition of the maximal aggregation measured in the presence of the agent compared with the measure in a control sample containing saline, carried out under the same conditions. The IC50 values were extrapolated from nonlinear regression analysis of concentration–response curves (three points) using MS Excel software (Microsoft 365 suite). Each IC50 value is the mean of six independent experiments.

[3] = DPPH radical-scavenging activity; format: physicochemical; parameters: AA (%), percentage of antioxidant activity: concentration or dose not given beside the values; conditions: mean ± SD, n = 2
Method: The antioxidant activity of the representative compounds of the two series (namely, acylhydrazones 10b, 11a, 11d, 12d, 13d, and amides 14, 22) was measured in vitro using the 2,2-diphenyl-1-picrylhydrazyl (DPPH) assay. The results were calculated as Trolox equivalent and expressed as a percentage of antioxidant activity (AA) (Table 3). […] Derivatives 10b and 12d were endowed with the highest antioxidant activity, thus highlighting the relevance of both pyrazole N1 and acylhydrazone substituents on compounds’ radical scavenging properties.
Compounds 10b, 11a, 11d, 12d, 13d, 14, and 22 (ca. 3 mg) were dissolved in DMSO (1 mL), and then 100 µL of this solution was mixed with 3.9 mL of DPPH methanol solution (65 µM). Absorbance was measured at 517 nm after reacting for 30 min in the dark. The linear calibration curve was obtained using Trolox standards (ranging between 20 and 200 mg/L, R^2 = 0.9955). The result was calculated as Trolox equivalent in mg/L, and the percentage of antioxidant activity (AA%) was calculated from the ratio of decreasing absorbance of sample solution (A0 − As) to absorbance of blank DPPH solution (A0), as expressed in Equation (1). (1) AA%=A0−As/A0×100
All analyses were carried out in duplicate (n = 2), and values are given as means ± standard deviation (SD).

IC50 (washed platelets [1])	IC50 (washed platelets [2])	melting point	SMILES	activity at 10 µM (A549)	Mean growth percentage at 10 µM (Hep-G2)	Mean growth percentage at 10 µM (MDA-MB231)	Mean growth percentage at 10 µM (SK-BR3)	activity at 10 µM (HeLa)	mean growth percentage (cell growth remaining vs control) at 10 µM (MCF7)	Mean growth percentage at 10 µM (SKMEL28)	Mean growth percentage at 10 µM (SKOV3)	Mean Growth Percentage (GM-6114)	AA (%), percentage of antioxidant activity [3]	DPPH (%) [3]
94 ± 7 µM	104 ± 4 µM	–	COc1ccc(/C=N/NC(=O)c2c(N)n[nH]c2Nc2ccccc2)cc1OC [10b, (E)-3-amino-N′-(3,4-dimethoxybenzylidene)-5-(phenylamino)-1H-pyrazole-4-carbohydrazide]	91.1%	115%	100%	91.6%	105%	95.3%	94.5%	114%	107.36%	76.45% and 76.45 ± 0.39%	23.55 ± 0.39%
890 ± 19 µM	182 ± 11 µM	183 to 186 °C	COc1ccc(/C=N/NC(=O)c2c(N)nn(C)c2Nc2ccccc2)cc1OCc1ccccc1 [11d, (E)-3-amino-N′-(3-(benzyloxy)-4-methoxybenzylidene)-1-methyl-5-(phenylamino)-1H-pyrazole-4-carbohydrazide]	101%	111%	98.6%	90.2%	95.2%	82.9%	89%	103%	99.22%	15.53 ± 0.24%	84.47 ± 0.24%
433 ± 16 µM	171 ± 9 µM	–	COc1ccc(/C=N/NC(=O)c2c(Nc3ccccc3)nn(C)c2N)cc1OCc1ccccc1 [12d, (E)-5-amino-N′-(3-(benzyloxy)-4-methoxybenzylidene)-1-methyl-3-(phenylamino)-1H-pyrazole-4-carbohydrazide]	102%	105%	94.1%	90.6%	85.7%	85.2%	80.8%	106%	102.79%	69.10 ± 0.39%	30.90 ± 0.39%

From PMC11083148, “Structure–Activity Relationship Studies on Highly Functionalized Pyrazole Hydrazones and Amides as Antiproliferative and Antioxidant Agents” (International Journal of Molecular Sciences, 2024)
